{"source": "paper PMC6017654", "about": "“Ionic Liquid-Promoted Synthesis of Novel Chromone-Pyrimidine Coupled Derivatives, Antimicrobial Analysis, Enzyme Assay, Docking Study and Toxicity Study” (Molecules : A Journal of Synthetic Chemistry and Natural …, 2018)", "key": {"DdlB from E.coli": {"biological_target": "DdlB from E.coli (Escherichia coli, UniProt P07862)", "assay": "D-Alanine-D-alanine ligase (DdlB) enzyme inhibition, malachite green method", "type": "biochemical", "settings": "37 °C, 30 min incubation, 5% DMSO", "experimental": "The key enzyme involved in the peptidoglycan biosynthesis is D-alanine-D-alanine ligase (Ddl), making it an important target for drug discovery. Inhibition of DdlB as an essential enzyme in either Gram-positive or Gram-negative organisms leads to the loss of cell shape and integrity followed by bacterial death. The synthesized derivatives 4(a–f) and 6(a–f) were tested for their inhibitory activity on DdlB from E.coli. The results are presented as IC50 values.\nThe D-Ala-adding activity of DdlB ligase was monitored by the detection of orthophosphate generated during the reaction based on the colorimetric malachite green method described by Walsh et al.. […] All the compounds were soluble in the assay mixture containing 5% DMSO. After 30 min of incubation, 100 µL Biomol reagent was added. After 5 min, absorbance was read at 650 nm. Residual activity was calculated with respect to a similar assay without inhibitor. To exclude possible non-specific (promiscuous) inhibitors, representative compounds 4(a–f) and 6(a–f) were also tested in the presence of Tween (0.003%), Triton X-114 (0.005%), and SDS (420 µM), as described by McGovern et al.. No significant differences were found when compared to measurements without detergents."}, "[1]": {"test_system": "HeLa (human cervical cancer cell line)", "assay": "In vitro cytotoxicity, Sulforhodamine B (SRB) assay", "type": "cell-based", "settings": "up to 80 µg/mL", "excerpt": "(§1) Toxicity scrutiny of synthesized compounds at the early phase of research paves the way to clinical trials and reduces the failure of potential therapeutics at later stages of clinical trials. To scrutinize the safety and selectivity of antimicrobial activity of the synthesized compounds, the compounds 6c and 6f were appraised for their toxicity against HeLa (a human cervical cancer cell line) and PC-3 (human prostate cancer cell line) by the Sulforhodamine B (SRB) assay using adriamycin as a standard drug.\n(§2) The images were captured using an Eclipse Ti-S Inverted Research Microscope (Nikon, Tokyo, Japan). Image processing software used was NIS-Elements."}, "[2]": {"assay": "In vitro cytotoxicity, Sulforhodamine B (SRB) assay", "type": "cell-based, human", "settings": "human, range 80 to 0.55 μg/mL", "excerpt": "as §1, §2"}, "[3]": {"test_system": "Staphylococcus aureus (NCIM-2901)", "assay": "In vitro antibacterial activity (MIC100, two fold serial dilution, NCCLS)", "type": "cell-based", "settings": "Staphylococcus aureus, NCIM2901, 24 h, read-out: MIC100, S. aureus NCIM-2901, average of three readings", "experimental": "(§3) All the synthesized compounds 4(a–f) and 6(a–f) were screened for their in vitro antibacterial activity against Staphylococcus aureus (NCIM-2901), Escherichia coli 1411 (standard laboratory strains) and Escherichia coli SM1411 (an acrAB deficient derivative of 1411). Minimum inhibitory concentration (MIC100) values were determined using methods recommended by National Committee for Clinical Laboratory Standards (NCCLS). Dimethyl sulfoxide (DMSO) was used as solvent control.\n(§4) All the synthesized compounds 4(a–f) and 6(a–f) were screened for their in vitro antibacterial activity against Staphylococcus aureus (NCIM-2901) and Escherichia coli 1411 (standard laboratory strains) and Escherichia coli SM1411 (an acrAB deficient derivative of 1411). Minimum inhibitory concentration (MIC100) values were determined using the method recommended by National Committee for Clinical Laboratory Standards (NCCLS). In vitro antibacterial activities of the synthesized compounds 4(a–f) and 6(a–f) were tested in Nutrient Broth (NB) for Bacteria by the two fold serial dilution method. Seeded broth (broth containing microbial spores) was prepared in NB from 24 h old bacterial cultures on nutrient agar (Hi-media) at 37 ± 1 °C. The bacterial suspension was adjusted with sterile saline to a concentration of […]. The synthesized compounds and standard drug D-cycloserine were prepared by two fold serial dilutions to obtain the required concentrations. The tubes were incubated in BOD incubators at 37 ± 1 °C for bacteria. The MICs were recorded by visual observations after 24 h (for bacteria) of incubation."}, "Escherichia coli 1411": {"test_system": "Escherichia coli 1411", "assay": "In vitro antibacterial activity (MIC100, two fold serial dilution, NCCLS)", "type": "cell-based", "settings": "Escherichia coli, 1411, 24 h, read-out: MIC100", "experimental": "as §3, §4"}, "[4]": {"test_system": "Escherichia coli SM1411 (an acrAB deficient derivative of 1411)", "assay": "In vitro antibacterial activity (MIC100, two fold serial dilution, NCCLS)", "type": "cell-based", "settings": "24 h, read-out: MIC100", "experimental": "as §3, §4"}, "[5]": {"test_system": "ergosterol biosynthesis in Candida albicans (NCIM-3471)", "assay": "Ergosterol extraction and quantitation assay (UV sterol profile)", "type": "cell-based", "settings": "C. albicans NCIM3471", "experimental": "Changes in this absorption pattern are therefore indicative of interference in the synthetic pathway of ergosterol.\nA single Candida albicans (NCIM-3471) colony from an overnight Sabouraud dextrose agar plate culture was used to inoculate 50 mL of Sabouraud dextrose broth for control and for various concentrations of the molecules. The cultures were incubated for 16 hours and harvested by centrifugation at 2700 rpm (856× g) for five min. The net weight of the cell pellet was determined. Three mL of 25% alcoholic potassium hydroxide solution was added to each pellet and vortex mixed for one min. Cell suspensions were transferred to sterile borosilicate glass screw-cap tubes and were incubated in an 85 °C water bath for one hour. Following incubation, the tubes were allowed to cool. Sterols were then extracted by addition of a mixture of 1 mL of sterile distilled water and 3 mL of n-heptane followed by vigorous vortex mixing for 3 min. The heptane layer was transferred to a clean borosilicate glass screw-cap tube and stored at −20 °C. Prior to analysis, 0.6 mL aliquot of sterol extract was diluted five fold in 100% ethanol and scanned spectrophotometrically between 240 nm and 300 nm with a spectrophotometer (UV-Visible Spectrophotometer 2100, Thermo Fischer Scientific, Waltham, MA, USA). The presence of ergosterol and the late sterol intermediate 24(28)-dehydroergosterol (DHE) in the extracted sample results in a characteristic four-peaked curve. The absence of detectable ergosterol in extracts was indicated by a flat line.\nSterols were extracted from cells and spectral profiles between 240 and 300 nm were determined."}}}
{"smiles": "COc1ccc2occ(C3NC(=S)NC(C)=C3C(=O)NN)c(=O)c2c1", "note": "(stereo not drawn) [Compound 6f, 4-(6-Methoxy-4-oxo-4H-chromen-3-yl)-6-methyl-2-thioxo-1,2,3,4-tetrahydropyrimidine-5-carbohydrazide]", "values": [{"measurement": "IC50", "setting": "DdlB from E.coli", "result": "> 400", "unit": "µM"}, {"measurement": "cell inhibition", "setting": "[1]", "result": "cell inhibition did not occur"}, {"measurement": "GI50", "setting": "[2]; HeLa cells, SRB assay", "result": "> 80", "unit": "µg/mL"}, {"measurement": "GI50", "setting": "[2]; PC-3 cells", "result": "> 80", "unit": "µg/mL"}, {"measurement": "MIC", "setting": "[3]", "result": "> 200", "unit": "µg/mL"}, {"measurement": "MIC", "setting": "Escherichia coli 1411", "result": "> 60", "unit": "µg/mL"}, {"measurement": "MIC", "setting": "[4]", "result": "> 60", "unit": "µg/mL"}, {"measurement": "ergosterol peak in UV sterol profile at the MIC value", "setting": "[5]; 6f 24 µg/mL, miconazole 25 µg/mL, 281.5 nm", "result": "almost a flat peak"}, {"measurement": "ergosterol peak at 281.5 nm with increasing concentration", "setting": "[5]; MIC/16 to MIC (1.5 to 24 µg/mL)", "result": "intensity of the ergosterol peak at 281.5 nm decreases"}]}
